Here are results for twelve compounds from patent publication US20240409585A1, “MACROCYCLIC IMMUNOMODULATORS” (priority 2021, published 2024).

Numbered stars: 1 amine (or outer) side, 2 acyl side, 3 side chain; on linkers, the order of the positions; unused ones are H or OH. Bridge positions count the residues as written; N and C are the ends. Square brackets hold non-standard residues; d marks the D form. Peptide text beside a SMILES is read from it. * marks the point of attachment. Bip(4'-COOH) = N[C@@H](Cc1ccc(-c2ccc(C(=O)O)cc2)cc1)C(=O)O; Bip(4'-NHAc) = CC(=O)Nc1ccc(-c2ccc(C[C@H](N)C(=O)O)cc2)cc1; Phe(3-CH2NH2) = O=C([C@H](Cc1cccc(CN[*:3])c1)N[*:1])[*:2]; Trp(1-CH2COOH) = N[C@@H](Cc1cn(CC(=O)O)c2ccccc12)C(=O)O; Phe(3-CF3) = N[C@@H](Cc1cccc(C(F)(F)F)c1)C(=O)O; Ala(morpholin-4-yl) = N[C@@H](CN1CCOCC1)C(=O)O; Phe(4-CONH2) = NC(=O)c1ccc(C[C@H](N)C(=O)O)cc1; Phe(4-COOH) = N[C@@H](Cc1ccc(C(=O)O)cc1)C(=O)O; X5 = CS(=O)(=O)NC(=O)C[C@H](N[*:1])C(=O)[*:2]; Bip = N[C@@H](Cc1ccc(-c2ccccc2)cc1)C(=O)O; Phe(3-Me) = Cc1cccc(C[C@H](N)C(=O)O)c1; Propanoyl(3,3,3-F3) = O=C(CC(F)(F)F)*; X11 = CC(N)[C@H](N[*:1])C(=O)[*:2]; hPhe = N[C@@H](CCc1ccccc1)C(=O)O; Cha = N[C@@H](CC1CCCCC1)C(=O)O; Propanoyl(3-OH) = O=C(CCO)*; Carboxymethyl = O=C(O)C*; NMeA = CN[C@@H](C)C(=O)O; Orn = NCCC[C@H](N)C(=O)O; Dab = NCC[C@H](N)C(=O)O; Dap = NC[C@H](N)C(=O)O; X9 = O=C(CCF)*

In the first assay the target is T1, Alexa fluor-647 labeled human PD-L1-Ig binding to Jurkat cell line over-expressing human PD-1 (Homo sapiens, UniProt Q15116).
T1 construct: expressed in transfected cells; host or cells: Jurkat
T1 sequence (Q15116 25-288): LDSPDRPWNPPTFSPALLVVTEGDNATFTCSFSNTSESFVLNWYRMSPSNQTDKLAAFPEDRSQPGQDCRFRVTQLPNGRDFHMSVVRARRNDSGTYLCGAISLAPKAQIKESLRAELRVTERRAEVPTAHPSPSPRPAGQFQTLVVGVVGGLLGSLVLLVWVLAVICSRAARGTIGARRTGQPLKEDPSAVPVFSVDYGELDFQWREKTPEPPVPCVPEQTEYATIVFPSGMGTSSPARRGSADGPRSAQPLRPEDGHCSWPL
Briefly: Jurkat-PD-1 Cell Binding High-Content Screening Assay (CBA): Method 3 (Alexa fluor-647 labeled PD-L1-Ig). Conditions: Jurkat-PD-1 cells, Alexa fluor-647 labeled PD-L1-Ig 177 nM; head μM; read-out: CBA Method 3 μM. The gist of the method:
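Readout by high-content imaging of PFA-fixed, Hoechst-stained cells after 1 h with 177 nM (final) Alexa fluor-647 PD-L1-Ig. Compound was added first to hPD-1 Jurkat cells in RPMI plus 10% FCS for 2 h at 37 °C.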
Take `CC(C)C[C@H]1NC(=O)[C@H](C)N(C)C(=O)[C@H](CCC(N)=O)NC(=O)[C@H](Cc2ccc(-c3ccccc3)cc2)NC(=O)[C@H](CCc2ccccc2)NC(=O)[C@H](Cc2cccc(C(F)(F)F)c2)NC(=O)[C@H](CC(=O)N[C@@H](CC(=O)O)C(=O)O)NC(=O)[C@H](Cc2ccc(OCC(=O)O)cc2)NC(=O)[C@H](CN2CCOCC2)NC(=O)CSC[C@@H](C(=O)N[C@@H](CCN)C(N)=O)NC(=O)[C@H](CCCN)NC(=O)[C@H](C(C)C)NC(=O)[C@H](CC2CCCCC2)NC(=O)[C@H](CCN)NC1=O` [Example 5294] ({CH2CO}-[Ala(morpholin-4-yl)]Y(Carboxymethyl)D(Asp)[Phe(3-CF3)][hPhe][Bip]Q[NMeA][dL][Dab][Cha]V[Orn]C[Dab]-NH2; thioether N-14): the IC50 was determined as 0.04 µM. Still for that read-out and setting: next, `CC(C)C[C@H]1NC(=O)[C@H](C)N(C)C(=O)[C@H](Cc2ccc(C(=O)O)cc2)NC(=O)[C@H](Cc2ccc(-c3ccccc3)cc2)NC(=O)[C@H](CCc2ccccc2)NC(=O)[C@H](Cc2cccc(C(F)(F)F)c2)NC(=O)[C@H](CC(=O)O)NC(=O)[C@H](Cc2ccc(C(=O)O)cc2)NC(=O)[C@H](CN2CCOCC2)NC(=O)CSC[C@@H](C(=O)N[C@@H](CCN)C(N)=O)NC(=O)[C@H](CNC(=O)CC(F)(F)F)NC(=O)[C@H](C(C)C)NC(=O)[C@H](CC2CCCCC2)NC(=O)[C@H](CCN)NC1=O` [Example 5232] ({CH2CO}-[Ala(morpholin-4-yl)][Phe(4-COOH)]D[Phe(3-CF3)][hPhe][Bip][Phe(4-COOH)][NMeA][dL][Dab][Cha]V[Dap](Propanoyl(3,3,3-F3))C[Dab]-NH2; thioether N-14): 0.1 µM.

On to `CC(C)C[C@H]1NC(=O)[C@H](C)N(C)C(=O)[C@H](Cc2ccc(C(=O)O)cc2)NC(=O)[C@H](Cc2ccc(-c3ccccc3)cc2)NC(=O)[C@H](Cc2ccc(C(=O)O)cc2)NC(=O)[C@H](Cc2cccc(C(F)(F)F)c2)NC(=O)[C@H](CC(=O)O)NC(=O)[C@H](Cc2ccc(C(=O)O)cc2)NC(=O)[C@H](CN2CCOCC2)NC(=O)CSC[C@@H](C(=O)N[C@@H](CCN)C(N)=O)NC(=O)[C@H](CNC(=O)CCF)NC(=O)[C@H](C(C)C)NC(=O)[C@H](CC2CCCCC2)NC(=O)[C@H](CCN)NC1=O` [Example 5230] ({CH2CO}-[Ala(morpholin-4-yl)][Phe(4-COOH)]D[Phe(3-CF3)][Phe(4-COOH)][Bip][Phe(4-COOH)][NMeA][dL][Dab][Cha]V[Dap](X9)C[Dab]-NH2; thioether N-14), for which the IC50 came to 0.03 µM. `Cc1cccc(C[C@@H]2NC(=O)[C@H](CC(=O)O)NC(=O)[C@H](Cc3ccc(OCC(=O)O)cc3)NC(=O)[C@H](Cc3cccc(CN)c3)NC(=O)CSC[C@@H](C(=O)N[C@@H](CCN)C(N)=O)NC(=O)[C@H](CCCN)NC(=O)[C@H](C(C)C)NC(=O)[C@H](CC3CCCCC3)NC(=O)[C@H](CCN)NC(=O)[C@@H](CC(C)C)NC(=O)[C@H](C)N(C)C(=O)[C@H](CCC(N)=O)NC(=O)[C@H](Cc3ccc(-c4ccccc4)cc3)NC(=O)[C@H](Cc3ccc(C(=O)O)cc3)NC2=O)c1` [Example 5176] ({CH2CO}-[Phe(3-CH2NH2)]Y(Carboxymethyl)D[Phe(3-Me)][Phe(4-COOH)][Bip]Q[NMeA][dL][Dab][Cha]V[Orn]C[Dab]-NH2; thioether N-14): the IC50 is 0.01 µM. Same read-out and setting: next, `Cc1cccc(C[C@@H]2NC(=O)[C@H](CC(=O)O)NC(=O)[C@H](Cc3ccc(-c4ccc(C(=O)O)cc4)cc3)NC(=O)[C@H](CN3CCOCC3)NC(=O)CSC[C@@H](C(=O)N[C@@H](CCN)C(N)=O)NC(=O)[C@H](CCC(=O)O)NC(=O)[C@H](C(C)C)NC(=O)[C@H](CC3CCCCC3)NC(=O)[C@H](CC(N)=O)NC(=O)[C@@H](CC(C)C)NC(=O)[C@H](C)N(C)C(=O)[C@H](Cc3ccc(OCC(=O)O)cc3)NC(=O)[C@H](Cc3ccc(-c4ccccc4)cc3)NC(=O)[C@H](Cc3ccc(-c4ccc(C(=O)O)cc4)cc3)NC2=O)c1` [Example 5128] ({CH2CO}-[Ala(morpholin-4-yl)][Bip(4'-COOH)]D[Phe(3-Me)][Bip(4'-COOH)][Bip]Y(Carboxymethyl)[NMeA][dL]N[Cha]VEC[Dab]-NH2; thioether N-14): 0.03 µM; `CC(=O)Nc1ccc(-c2ccc(C[C@@H]3NC(=O)[C@H](Cc4cccc(C(F)(F)F)c4)NC(=O)[C@H](CC(=O)NS(C)(=O)=O)NC(=O)[C@H](Cc4ccc(C(N)=O)cc4)NC(=O)[C@H](CC(C)C)NC(=O)CSC[C@@H](C(=O)N[C@@H](CCN)C(N)=O)NC(=O)[C@H](CC(N)=O)NC(=O)[C@H](C(C)C)NC(=O)[C@H](CC4CCCCC4)NC(=O)[C@H](CCN)NC(=O)[C@@H](CC(C)C)NC(=O)[C@H](C)N(C)C(=O)[C@H](Cc4ccc(C(N)=O)cc4)NC(=O)[C@H](Cc4ccc(-c5ccccc5)cc4)NC3=O)cc2)cc1` [Example 5114] ({CH2CO}-L[Phe(4-CONH2)][X5][Phe(3-CF3)][Bip(4'-NHAc)][Bip][Phe(4-CONH2)][NMeA][dL][Dab][Cha]VNC[Dab]-NH2; thioether N-14): 0.11 µM.

`Cc1cccc(C[C@@H]2NC(=O)[C@H](CC(=O)O)NC(=O)[C@H](Cc3ccc(OCC(=O)O)cc3)NC(=O)[C@H](CC3CCCCC3)NC(=O)CSC[C@@H](C(=O)N[C@@H](CCN)C(N)=O)NC(=O)[C@H](CCCN)NC(=O)[C@H](C(C)C)NC(=O)[C@H](Cc3cccc(CN)c3)NC(=O)[C@H](CCN)NC(=O)[C@@H](CC(C)C)NC(=O)[C@H](C)N(C)C(=O)[C@H](CCC(N)=O)NC(=O)[C@H](Cc3ccc(-c4ccccc4)cc3)NC(=O)[C@H](Cc3ccc(C(=O)O)cc3)NC2=O)c1` [Example 5188] ({CH2CO}-[Cha]Y(Carboxymethyl)D[Phe(3-Me)][Phe(4-COOH)][Bip]Q[NMeA][dL][Dab][Phe(3-CH2NH2)]V[Orn]C[Dab]-NH2; thioether N-14): the IC50 amounted to 0.05 µM.

The same assay, now with this note: Jurkat-PD-1 cells, Alexa fluor-647 labeled PD-L1-Ig 177 nM; nM; read-out: CBA Method 3.
As for `Cc1cccc(C[C@@H]2NC(=O)[C@H](CC(=O)O)NC(=O)[C@H](Cc3ccc(OCC(=O)O)cc3)NC(=O)[C@H](Cc3cn(CC(=O)O)c4ccccc34)NC(=O)CSC[C@@H](C(=O)N[C@@H](CCN)C(N)=O)NC(=O)[C@H](CCCN)NC(=O)[C@H](C(C)C)NC(=O)[C@H](CC3CCCCC3)NC(=O)[C@H](CCN)NC(=O)[C@@H](CC(C)C)NC(=O)[C@H](C)N(C)C(=O)[C@H](CCC(N)=O)NC(=O)[C@H](Cc3ccc(-c4ccccc4)cc3)NC(=O)[C@H](Cc3ccc(C(=O)O)cc3)NC2=O)c1` [Example 5171] ({CH2CO}-[Trp(1-CH2COOH)]Y(Carboxymethyl)D[Phe(3-Me)][Phe(4-COOH)][Bip]Q[NMeA][dL][Dab][Cha]V[Orn]C[Dab]-NH2; thioether N-14), the IC50 worked out at 0.0044 µM. Still for that read-out and setting: next, `Cc1cccc(C[C@@H]2NC(=O)[C@H](CC(=O)O)NC(=O)[C@H](Cc3ccc(OCC(=O)O)cc3)NC(=O)[C@H](Cc3cccc(C(F)(F)F)c3)NC(=O)CSC[C@@H](C(=O)N[C@@H](CCN)C(N)=O)NC(=O)[C@H](CCCN)NC(=O)[C@H](C(C)C)NC(=O)[C@H](CC3CCCCC3)NC(=O)[C@H](CCN)NC(=O)[C@@H](CC(C)C)NC(=O)[C@H](C)N(C)C(=O)[C@H](CCC(N)=O)NC(=O)[C@H](Cc3ccc(-c4ccccc4)cc3)NC(=O)[C@H](Cc3ccc(C(=O)O)cc3)NC2=O)c1` [Example 5276] ({CH2CO}-[Phe(3-CF3)]Y(Carboxymethyl)D[Phe(3-Me)][Phe(4-COOH)][Bip]Q[NMeA][dL][Dab][Cha]V[Orn]C[Dab]-NH2; thioether N-14): 0.0011 µM. Still for that read-out and setting: next, `CC(=O)Nc1ccc(-c2ccc(C[C@@H]3NC(=O)[C@H](Cc4cccc(C(F)(F)F)c4)NC(=O)[C@H](CC(=O)O)NC(=O)[C@H](Cc4ccc(C(=O)O)cc4)NC(=O)[C@H](C(C)N)NC(=O)CSC[C@@H](C(=O)N[C@@H](CCN)C(N)=O)NC(=O)[C@H](CNC(=O)CCO)NC(=O)[C@H](C(C)C)NC(=O)[C@H](CC4CCCCC4)NC(=O)[C@H](CCN)NC(=O)[C@@H](CC(C)C)NC(=O)[C@H](C)N(C)C(=O)[C@H](Cc4ccc(C(N)=O)cc4)NC(=O)[C@H](Cc4ccc(-c5ccccc5)cc4)NC3=O)cc2)cc1` (stereo partly drawn) [Example 5148] ({CH2CO}-[X11][Phe(4-COOH)]D[Phe(3-CF3)][Bip(4'-NHAc)][Bip][Phe(4-CONH2)][NMeA][dL][Dab][Cha]V[Dap](Propanoyl(3-OH))C[Dab]-NH2; thioether N-14): 0.0009 µM; `Cc1cccc(C[C@@H]2NC(=O)[C@H](CC(=O)O)NC(=O)[C@H](Cc3ccc(OCC(=O)O)cc3)NC(=O)[C@H](Cc3ccc(OCC(=O)O)cc3)NC(=O)CSC[C@@H](C(=O)N[C@@H](CCN)C(N)=O)NC(=O)[C@H](CCCN)NC(=O)[C@H](C(C)C)NC(=O)[C@H](CC3CCCCC3)NC(=O)[C@H](CCN)NC(=O)[C@@H](CC(C)C)NC(=O)[C@H](C)N(C)C(=O)[C@H](CCC(N)=O)NC(=O)[C@H](Cc3ccc(-c4ccccc4)cc3)NC(=O)[C@H](Cc3ccc(C(=O)O)cc3)NC2=O)c1` [Example 5168] ({CH2CO}-Y(Carboxymethyl)Y(Carboxymethyl)D[Phe(3-Me)][Phe(4-COOH)][Bip]Q[NMeA][dL][Dab][Cha]V[Orn]C[Dab]-NH2; thioether N-14): 0.0014 µM; `Cc1cccc(C[C@@H]2NC(=O)[C@H](CC(=O)O)NC(=O)[C@H](Cc3ccc(OCC(=O)O)cc3)NC(=O)[C@H](Cc3ccccc3)NC(=O)CSC[C@@H](C(=O)N[C@@H](CCN)C(N)=O)NC(=O)[C@H](CCCN)NC(=O)[C@H](C(C)C)NC(=O)[C@H](CC3CCCCC3)NC(=O)[C@H](CCN)NC(=O)[C@@H](CC(C)C)NC(=O)[C@H](C)N(C)C(=O)[C@H](CCC(N)=O)NC(=O)[C@H](Cc3ccc(-c4ccccc4)cc3)NC(=O)[C@H](Cc3ccc(C(=O)O)cc3)NC2=O)c1` [Example 5267] ({CH2CO}-FY(Carboxymethyl)D[Phe(3-Me)][Phe(4-COOH)][Bip]Q[NMeA][dL][Dab][Cha]V[Orn]C[Dab]-NH2; thioether N-14): 0.0012 µM.
